Test results taken from paper PMC4992173, “Divergent synthesis and identification of the cellular targets of deoxyelephantopins” (Nature Communications, 2016).

Target: T1, Protein HGH1 homolog (HGH1) (Homo sapiens, UniProt Q9BTY7)
T1 construct: 1,522 proteins were enriched from MCF7 cells by 10 μM probe 24c; endogenous in cells; host or cells: MCF7
Assay: SILAC competitive profiling with probe 24c in MCF7 lysates: HGH1
Type: binding
Conditions: 1 h, then 10 µM 24c
From the text: In our efforts to determine the direct molecular targets of deoxyelephantopin we first performed a gel-based competitive in situ proteomic profiling assay[41] […] While the greater conformational flexibility of probe 24c could potentially lead to more promiscuous target engagement relatively to deoxyelephantopin, it was favoured based on the fact that an alkyne moiety appended to the rigid scaffold of deoxyelephantopin may hinder some of its interactions. MCF7 cells were pretreated with various concentrations of deoxyelephantopin for 4 h, harvested, lysed and the lysates were treated with the fluorogenic probe 24c-Cy3 (10 μM; Supplementary Fig. 10). […] Furthermore, cells were pretreated with 20 μM concentration of deoxyelephantopin or 24c and the proteomic profiles were compared (Fig. 6b, Supplementary Fig. 11). Multiple bands were detected that were equally competed by both DEP and 24c, thus again confirming that 24c can be used as an acceptable clickable analogue of deoxyelephantopin in pulldown assays. Having established the optimal labelling conditions by SDS–PAGE, we next carried out a mass spectrometry-based competitive profiling assay[42] coupled with the method of stable isotope labelling of amino acids in culture (SILAC)[43]. […]
visualization were performed as described above. Images were quantified with ImageJ and kinetics values were calculated using GraphPad Prism (V6.03). […]

T1 sequence (Q9BTY7 whole entry): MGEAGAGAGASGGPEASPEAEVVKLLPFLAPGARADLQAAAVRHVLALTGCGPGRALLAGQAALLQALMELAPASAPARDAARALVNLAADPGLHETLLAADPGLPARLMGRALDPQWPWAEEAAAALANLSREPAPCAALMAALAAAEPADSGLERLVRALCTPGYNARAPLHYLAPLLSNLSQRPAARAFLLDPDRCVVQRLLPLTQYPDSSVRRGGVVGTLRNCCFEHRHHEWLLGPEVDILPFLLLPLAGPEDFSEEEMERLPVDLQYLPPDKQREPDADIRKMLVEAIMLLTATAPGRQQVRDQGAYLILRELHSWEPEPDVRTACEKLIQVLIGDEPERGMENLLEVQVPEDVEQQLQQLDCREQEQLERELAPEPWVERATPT

## C=C(C)C(=O)O[C@H]1CC2=C[C@@H](C/C(C)=C/[C@H]3OC(=O)C(=C)[C@H]13)OC2=O [deoxyelephantopin]
  SILAC ratio 20 µM Deoxyelephantopin/DMSO with 24c: 0.20
